The values below are quoted from earlier work in patent publication US8133524B1, “Food composition for hemophagous insects” (Tokitae LLC, priority 2010, dated 2012).

This data set relates to Aedes aegypti mosquitoes. To be noted: mosquitoes fed with human red blood cells or blood.

“Also recorded” adds a separate entry of the source.

On to `CC[C@H](C)[C@H](N)C(=O)O` [isoleucine], for which the “effect of isoleucine supplementation on egg production / egg-laying” value is “enhanced egg production rate; also recorded: enhanced egg-laying after blood feeding”.
